Test results from BigSolDB 2.1.

N[C@@H](Cc1ccccc1)C(=O)O
solubility (mole fraction)
Details	288.15 K	293.15 K	298.15 K	303.15 K	308.15 K
in ethanol	8.9e-05	9.96e-05	0.000116	0.000134	0.00016
in methanol	0.00032	0.000416	0.000563	0.00065	0.000743
in water	0.00219	0.00247	0.00277	0.00312	0.00348
